Assay results as given in ChEMBL document CHEMBL3797081, “Application of virtual screening to the discovery of novel nicotinamide phosphoribosyltransferase (NAMPT) inhibitors with potential for the treatment of cancer and axonopathies” (Bioorg Med Chem Lett, 2016).
pIC50: −log10 of the molar value. Active and inactive are the calls of the source. The calls are words filed in the database; no cut-off is given here.

Columns and labels:
[1] = biological target: Nicotinamide phosphoribosyltransferase (Homo sapiens, UniProt P43490); test: Inhibition of human NAMPT using NAM as substrate assessed as NMN formation preincubated for 5 mins followed by substrate addition measured after 15 mins by fluorometric assay
CYP1A2 = biological target: T1, CYP1A2 (Homo sapiens, UniProt P05177); test: Inhibition of CYP1A2 (unknown origin) at 3 uM relative to control; type: ADME
T1 sequence (P05177 whole entry): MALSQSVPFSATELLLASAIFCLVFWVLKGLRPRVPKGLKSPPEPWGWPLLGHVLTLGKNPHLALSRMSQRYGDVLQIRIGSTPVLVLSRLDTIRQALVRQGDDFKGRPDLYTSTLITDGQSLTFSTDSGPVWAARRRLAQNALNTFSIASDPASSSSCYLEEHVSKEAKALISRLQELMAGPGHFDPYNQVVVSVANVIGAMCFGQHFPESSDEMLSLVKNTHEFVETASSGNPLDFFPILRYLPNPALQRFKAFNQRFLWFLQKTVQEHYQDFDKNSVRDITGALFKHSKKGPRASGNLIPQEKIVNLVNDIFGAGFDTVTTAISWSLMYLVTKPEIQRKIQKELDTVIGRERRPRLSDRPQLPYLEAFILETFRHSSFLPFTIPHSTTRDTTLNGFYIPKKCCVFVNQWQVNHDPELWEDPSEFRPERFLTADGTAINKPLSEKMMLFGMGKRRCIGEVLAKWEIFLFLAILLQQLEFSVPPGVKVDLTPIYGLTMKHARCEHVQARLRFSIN

CYP2C9 = CYP2C9 (Homo sapiens, UniProt P11712); test: Inhibition of CYP2C9 (unknown origin) at 3 uM relative to control; type: ADME
[2] = Metabolic stability in mouse liver microsomes assessed as parent compound remaining at 5 uM measured at 30 mins in absence of NADPH; type: ADME; conditions: read-out: Stability
[3] = Plasma protein binding in human; type: ADME, cell-free; conditions: read-out: PPB (converted)
[4] = Metabolic stability in mouse liver microsomes assessed as parent compound remaining at 5 uM measured at 30 mins in presence of NADPH; type: ADME; conditions: read-out: Stability
CYP2D6 = CYP2D6 (Homo sapiens, UniProt P10635); test: Inhibition of CYP2D6 (unknown origin) at 3 uM relative to control; type: ADME
[5] = Metabolic stability in human liver microsomes assessed as parent compound remaining at 5 uM measured at 30 mins in absence of NADPH; type: ADME; conditions: read-out: Stability
[6] = Metabolic stability in human liver microsomes assessed as parent compound remaining at 5 uM measured at 30 mins in presence of NADPH; type: ADME; conditions: read-out: Stability
CYP3A4 = CYP3A4 (Homo sapiens, UniProt P08684); test: Inhibition of CYP3A4 (unknown origin) at 3 uM relative to control; type: ADME
[7] = Permeability across human Caco2 cells assessed as drug recovery; type: ADME, cell-based; conditions: Caco-2, read-out: Drug recovery
[8] = biological target: Nicotinamide phosphoribosyltransferase (Mus musculus) (UniProt Q99KQ4); test: Inhibition of NAMPT in neonatal mouse superior cervical ganglion explant assessed as delay in degeneration of injured axons at 1 uM treated <10 mins prior to axon transection meaured at 8 hrs by phase contrast microscopy; type: tissue-based
[9] = biological target: Nicotinamide phosphoribosyltransferase (Mus musculus) (UniProt Q99KQ4); conditions: Superior cervical ganglion, 100 nM
Description: Inhibition of NAMPT in neonatal mouse superior cervical ganglion explant assessed as delay in degeneration of injured axons at 100 nM treated <10 mins prior to axon transection meaured at 8 to 24 hrs by phase contrast microscopy

Chain of Nicotinamide phosphoribosyltransferase (P43490 whole entry): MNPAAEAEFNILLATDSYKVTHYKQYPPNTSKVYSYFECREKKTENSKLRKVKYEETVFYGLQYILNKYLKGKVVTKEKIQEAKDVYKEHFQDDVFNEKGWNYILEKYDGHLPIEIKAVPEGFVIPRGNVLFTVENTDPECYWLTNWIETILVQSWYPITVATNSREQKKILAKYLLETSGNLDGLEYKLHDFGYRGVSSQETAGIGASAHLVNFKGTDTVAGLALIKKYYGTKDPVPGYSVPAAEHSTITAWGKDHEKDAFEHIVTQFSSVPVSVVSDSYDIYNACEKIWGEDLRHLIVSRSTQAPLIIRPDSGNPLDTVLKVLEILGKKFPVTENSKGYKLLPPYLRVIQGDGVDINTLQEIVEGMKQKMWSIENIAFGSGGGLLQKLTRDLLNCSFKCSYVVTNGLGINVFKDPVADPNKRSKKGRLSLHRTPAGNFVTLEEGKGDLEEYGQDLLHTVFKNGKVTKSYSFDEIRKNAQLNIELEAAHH
Chain of CYP2D6 (P10635 whole entry): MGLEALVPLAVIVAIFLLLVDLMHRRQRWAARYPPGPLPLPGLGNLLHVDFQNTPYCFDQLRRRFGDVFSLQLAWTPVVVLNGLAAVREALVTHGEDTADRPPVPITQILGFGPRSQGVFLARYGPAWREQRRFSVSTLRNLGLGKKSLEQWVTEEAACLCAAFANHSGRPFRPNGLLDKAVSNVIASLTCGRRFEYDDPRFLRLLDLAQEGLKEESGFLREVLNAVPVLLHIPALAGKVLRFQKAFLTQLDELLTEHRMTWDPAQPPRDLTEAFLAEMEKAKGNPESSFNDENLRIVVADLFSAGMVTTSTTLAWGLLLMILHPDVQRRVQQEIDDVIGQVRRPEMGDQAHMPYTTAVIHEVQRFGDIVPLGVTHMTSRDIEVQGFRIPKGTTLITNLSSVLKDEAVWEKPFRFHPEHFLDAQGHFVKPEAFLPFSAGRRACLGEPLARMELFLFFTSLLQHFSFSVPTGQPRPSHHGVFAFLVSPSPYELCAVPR
Chain of CYP3A4 (P08684 whole entry): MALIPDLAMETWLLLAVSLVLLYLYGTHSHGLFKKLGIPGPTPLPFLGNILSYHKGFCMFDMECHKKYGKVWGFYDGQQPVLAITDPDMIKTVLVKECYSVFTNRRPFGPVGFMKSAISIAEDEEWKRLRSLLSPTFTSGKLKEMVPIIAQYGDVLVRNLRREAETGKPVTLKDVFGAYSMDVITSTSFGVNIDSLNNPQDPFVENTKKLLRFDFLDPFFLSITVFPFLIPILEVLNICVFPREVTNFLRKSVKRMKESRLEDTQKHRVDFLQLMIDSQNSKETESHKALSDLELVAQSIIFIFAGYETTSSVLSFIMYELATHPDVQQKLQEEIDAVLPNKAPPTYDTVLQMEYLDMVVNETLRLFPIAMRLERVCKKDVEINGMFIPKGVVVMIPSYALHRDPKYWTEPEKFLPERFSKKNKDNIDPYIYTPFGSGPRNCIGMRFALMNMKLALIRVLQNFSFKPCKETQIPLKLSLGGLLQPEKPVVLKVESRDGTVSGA
Chain of CYP2C9 (P11712 whole entry): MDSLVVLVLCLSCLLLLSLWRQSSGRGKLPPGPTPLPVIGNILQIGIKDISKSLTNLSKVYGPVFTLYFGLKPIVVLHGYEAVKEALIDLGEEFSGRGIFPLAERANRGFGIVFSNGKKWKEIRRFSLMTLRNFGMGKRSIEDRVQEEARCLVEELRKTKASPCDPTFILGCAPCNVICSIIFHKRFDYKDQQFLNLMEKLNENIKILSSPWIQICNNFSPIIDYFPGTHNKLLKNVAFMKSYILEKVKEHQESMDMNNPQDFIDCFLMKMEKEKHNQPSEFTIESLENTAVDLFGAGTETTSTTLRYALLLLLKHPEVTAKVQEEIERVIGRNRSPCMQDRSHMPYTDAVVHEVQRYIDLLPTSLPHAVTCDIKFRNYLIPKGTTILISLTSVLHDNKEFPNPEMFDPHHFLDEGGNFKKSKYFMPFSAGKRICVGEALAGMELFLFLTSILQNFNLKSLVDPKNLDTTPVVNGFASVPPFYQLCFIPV
Chain of Nicotinamide phosphoribosyltransferase (Mus musculus) (Q99KQ4 whole entry, looked up): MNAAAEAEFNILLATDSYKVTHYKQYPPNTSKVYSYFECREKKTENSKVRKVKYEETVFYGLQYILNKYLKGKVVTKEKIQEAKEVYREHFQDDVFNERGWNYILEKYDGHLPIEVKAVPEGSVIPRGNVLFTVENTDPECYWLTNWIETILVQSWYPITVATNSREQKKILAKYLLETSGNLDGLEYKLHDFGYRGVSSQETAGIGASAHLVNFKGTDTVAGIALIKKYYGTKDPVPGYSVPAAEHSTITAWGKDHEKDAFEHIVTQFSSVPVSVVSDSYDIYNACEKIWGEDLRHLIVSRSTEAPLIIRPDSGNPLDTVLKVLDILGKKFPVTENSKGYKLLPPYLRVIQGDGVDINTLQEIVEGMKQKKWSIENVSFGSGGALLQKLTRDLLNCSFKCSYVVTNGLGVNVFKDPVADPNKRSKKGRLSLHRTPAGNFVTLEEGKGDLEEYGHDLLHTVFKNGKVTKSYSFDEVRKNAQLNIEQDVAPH

## O=C(COc1ccc(S(=O)(=O)Nc2ccc(Cl)cc2)cc1)NCc1cccnc1
[1]
  pIC50: 5.72

## O=C(/C=C/c1cccnc1)Nc1ccc(C(=O)NCC(F)(F)F)cc1
[1]
  pIC50: 6.66

## O=C(/C=C/c1cccnc1)Nc1ccc(-c2nnc3n2CCCCC3)cc1
[1]
  pIC50: 6.17

## CC1(C)Cc2cccc(OCCNC(=O)/C=C/c3cccnc3)c2O1
[1]
  pIC50: 6.03

## O=C(NCc1cccnc1)c1cc2n(n1)CCN(Cc1ccc(Cl)c(Cl)c1)C2=O
[1]
  pIC50: 6.49

## O=C(NCCOc1ccc2ccccc2c1)NCc1cccnc1
[1]
  pIC50: 5.30

## CCCCc1ccc(NC(=O)C2CC2c2cccnc2)cc1 (stereo not drawn)
CYP1A2
  inhibition at 3 µM: 22%
CYP2C9
  inhibition at 3 µM: 31%
[1]
  pIC50: 7.38
[2]
  remaining at 0.5 h, 5 µM: 87%
[3]
  fraction unbound: 0.008
[4]
  remaining at 0.5 h, 5 µM: 43%
CYP2D6
  inhibition at 3 µM: 1%
[5]
  remaining at 0.5 h, 5 µM: 96%
[6]
  remaining at 0.5 h, 5 µM: 7%
CYP3A4
  inhibition at 3 µM: 63%
[7]
  recovery: < 70%

## O=C(c1cc(-c2cccnc2)[nH]n1)N1CCN(C(c2ccccc2)c2ccccc2)CC1
CYP1A2
  inhibition at 3 µM: 23%
CYP2C9
  inhibition at 3 µM: 43%
[1]
  pIC50: 6.61
[2]
  remaining at 0.5 h, 5 µM: 96%
[3]
  fraction unbound: 0.004
[4]
  remaining at 0.5 h, 5 µM: 19%
CYP2D6
  inhibition at 3 µM: 3%
[5]
  remaining at 0.5 h, 5 µM: 104%
[8]
  inhibition: Active
[6]
  remaining at 0.5 h, 5 µM: 63%
CYP3A4
  inhibition at 3 µM: 20%
[7]
  recovery: < 70%

## O=C(/C=C/c1cccnc1)N1CCN(Cc2ccc(OC(F)(F)F)cc2)CC1
[1]
  pIC50: 6.11

## O=C(/C=C/c1cccnc1)NCCCCC1CCN(C(=O)c2ccccc2)CC1
[9]
  inhibition: Active

## O=C(c1cc(-c2cccnc2)n[nH]1)N1CCN(C(=O)c2cc3ccccc3[nH]2)CC1
[1]
  pIC50: 5.42

## O=C(/C=C/c1cccnc1)N1CCN(Cc2csc(-c3ccc(F)cc3)n2)CC1
[1]
  pIC50: 5.49
